Assay results taken from patent publication US20080031944A1, “Stabilization of lorazepam” (CIMA LABS INC., priority 2006, published 2008).

Test: Stability of lorazepam with ODT excipients and coatings

## O=C1Nc2ccc(Cl)cc2C(c2ccccc2Cl)=NC1O (centres unmarked) [lorazepam, 7-chloro-5-(2-chlorophenyl)-1,3-dihydro-3-hydroxy-2H-1,4-benzodiazepin-2-one]
Lorazepam coated with EUDRAGIT® E-100
  stability when coated: unstable
With mannitol and super disintegrants such as crosslinked PVP
  stability with ODT excipients: unstable
